US9573907B2, “2, 4-pyrimidine derivatives and use thereof” (SNU R&DB FOUNDATION, priority 2009, dated 2017)

Tests used:
gp96 V712A/L713A/F714Y = molecular target: T1, gp96 V712A/L713A/F714Y (Homo sapiens, UniProt P14625, F718Y/L717A/V716A); assay: Surface plasmon resonance, GPM1 binding to gp96 mutant V712A/L713A/F714Y
T1 construct: made in house; host or cells: Escherichia coli BL21 (DE3)
Description: Human gp96 was expressed as His tag fusion protein in Escherichia coli BL21 (DE3) and purified by nickel affinity chromatography. His-tagged human gp96 was immobilized onto CM5 sensor chips using standard amine coupling2. PBS was used as a running buffer. The carboxymethyl dextran surface within one side of the flow cell was activated with a 7-min injection of a 1:1 ratio of 0.4M EDC and 0.1M NHS. The protein was coupled to the surface with a 7-min injection of gp96 diluted in 10 mM sodium acetate, pH 3.7. Remaining activated groups were blocked with a 7-min injection of 1.0M ethanolamine, pH 8.5. GPM1 compound was dissolved directly in the PBS running buffer containing 1% DMSO and injected at a flow rate of 20 μl/min at 25° C. and the binding was determined by the change in resonance units (RU). The compound concentration varied from 10 nM to 25 μM and each concentration was tested at least three times. All of the bound complexes dissociated back to baseline within a reasonable time frame. Therefore, no regeneration was required. Sensorgram was processed by subtracting the binding response recorded from the control surface, followed by subtracting an average of the buffer blank injections from the reaction spot. To determine kinetic rate constants, all data sets were fit to a simple 1:1 binding with drifting baseline model using BIAevaluation program.
The present inventors compared the dose-dependent effect of GPM1 and NC1 on the interaction of gp96 and AIMP1 using ELISA. […] The present inventors monitored the binding kinetics of GPM1 to gp96 or AIMP1 by surface plasmon resonance (SPR) using BIAcore 3000. […] To further define the GPM1 binding region of gp96 (Han, J. M., Park, S. G., Liu, B., Park, B. J., Kim, J. Y., Jin, C. H., Song, Y. W., Li, Z. & Kim, S. Am. J. Pathol. 170, 2042-2054 (2007)), the present inventors introduced point mutations at L707, V706, V712, L713, F714, Y731 and M738 that are located within AIMP1 binding region of gp96 and monitored how the mutations at these sites would affect the binding of GPM1 to gp96 using SPR method.

[1] = molecular target: T2, interaction of gp96 with AIMP1 (Mus musculus, UniProt P08113); assay: Co-immunoprecipitation of gp96 with AIMP1 in RAW24.7 cells; format: cell-based; details: 10 μM, 24 h
T2 construct: endogenous in cells; host or cells: RAW24.7 (RAW264.7) cells
Description: FIGS. 1 to 9 represent suppression of cell surface gp96 by GPM1 reduces DC maturation and B220^+ population in gp96tm transgenic mice. (FIG. 1) Chemical structure of GPM1 (Formula 2) and negative control (NC1, Formula 16) used in this study. (FIG. 2) The dose-dependent effect of GPM1 or NC1 on the AIMP1-gp96 interaction using ELISA method as described. The indicated concentrations of the two compounds and biotin-conjugated murine gp96 were added to AIMP1 coated on the surface of microtiter wells, and gp96 bound to AIMP1 was detected with strepavidin-conjugated peroxidase. (FIG. 3) The binding of GPM1 to gp96 was examined by surface plasmon resonance (SPR). GPM1 at the indicated concentrations was injected to immobilized gp96 and the binding was measured using Biacore 3000. The response data were processed using data from a reference surface and buffer injections. Each concentration was tested in triplicate. (FIG. 4) RAW24.7 cells were treated with 10 μM GPM1 for 24 h. Cell lysates were immunoprecipitated with control IgG or anti-gp96 antibody and the immunoprecipitated proteins were immunoblotted with anti-KDELR1, antiAIMP1 and gp96 antibodies. WCL means whole cell lysate. […] TNFα secreted from BMDCs was quantified by ELISA. […]

T1 sequence (P14625 22-803 V716A/L717A/F718Y): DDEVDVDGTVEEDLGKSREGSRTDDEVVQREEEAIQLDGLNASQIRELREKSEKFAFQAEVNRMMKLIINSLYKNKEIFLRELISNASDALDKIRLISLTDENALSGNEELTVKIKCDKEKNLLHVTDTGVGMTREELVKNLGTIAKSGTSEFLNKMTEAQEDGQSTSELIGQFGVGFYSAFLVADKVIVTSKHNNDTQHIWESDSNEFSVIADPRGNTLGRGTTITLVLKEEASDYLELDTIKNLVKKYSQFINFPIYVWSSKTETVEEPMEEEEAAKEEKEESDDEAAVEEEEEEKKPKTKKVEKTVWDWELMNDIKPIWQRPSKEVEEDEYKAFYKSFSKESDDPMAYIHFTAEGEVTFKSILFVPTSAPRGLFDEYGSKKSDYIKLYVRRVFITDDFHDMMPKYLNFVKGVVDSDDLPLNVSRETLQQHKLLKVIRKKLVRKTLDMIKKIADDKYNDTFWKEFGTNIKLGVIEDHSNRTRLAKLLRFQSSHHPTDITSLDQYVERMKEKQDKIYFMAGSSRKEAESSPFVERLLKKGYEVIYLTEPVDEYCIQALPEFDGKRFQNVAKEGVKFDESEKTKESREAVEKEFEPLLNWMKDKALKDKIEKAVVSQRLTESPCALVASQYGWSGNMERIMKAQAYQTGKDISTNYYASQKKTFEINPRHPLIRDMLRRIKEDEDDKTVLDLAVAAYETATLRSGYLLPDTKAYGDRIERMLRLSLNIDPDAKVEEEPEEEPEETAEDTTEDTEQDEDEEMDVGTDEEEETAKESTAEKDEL
T2 sequence (P08113 22-802): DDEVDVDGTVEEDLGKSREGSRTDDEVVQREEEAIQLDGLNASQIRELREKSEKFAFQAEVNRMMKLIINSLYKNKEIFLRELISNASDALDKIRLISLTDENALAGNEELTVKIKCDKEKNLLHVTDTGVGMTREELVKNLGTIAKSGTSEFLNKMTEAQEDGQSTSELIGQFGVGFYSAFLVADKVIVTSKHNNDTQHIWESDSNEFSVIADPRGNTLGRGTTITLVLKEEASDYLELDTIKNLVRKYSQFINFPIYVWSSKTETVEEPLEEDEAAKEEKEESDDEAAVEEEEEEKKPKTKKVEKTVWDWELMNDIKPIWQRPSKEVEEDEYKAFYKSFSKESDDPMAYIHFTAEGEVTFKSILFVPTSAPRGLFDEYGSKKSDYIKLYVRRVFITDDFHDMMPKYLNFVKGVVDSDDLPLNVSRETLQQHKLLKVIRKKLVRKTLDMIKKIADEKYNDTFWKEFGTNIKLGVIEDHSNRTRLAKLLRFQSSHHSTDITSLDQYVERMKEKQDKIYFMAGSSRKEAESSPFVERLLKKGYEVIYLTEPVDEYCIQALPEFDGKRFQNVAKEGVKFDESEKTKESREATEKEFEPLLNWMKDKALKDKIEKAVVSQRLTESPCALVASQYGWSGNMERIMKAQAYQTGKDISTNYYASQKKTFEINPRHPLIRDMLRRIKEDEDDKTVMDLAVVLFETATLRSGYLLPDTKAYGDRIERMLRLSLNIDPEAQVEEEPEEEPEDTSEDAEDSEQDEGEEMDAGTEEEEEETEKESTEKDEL

In the case of `COC(=O)[C@@H](Oc1nc(OC)cc(OC)n1)C(C)C` [GPM1, (S)-methyl 2-(4,6-dimethoxypyrimidin-2-yloxy)-3-methylbutanoate], the Kd (gp96 V712A/L713A/F714Y) is reported as 21.9 µM, the “koff (dissociation rate constant)” value (gp96 V712A/L713A/F714Y) is reported as 0.0142 s⁻¹ and the kon (gp96 V712A/L713A/F714Y; read-out: Ka) is reported as 650 M⁻¹ s⁻¹. For the same compound, the “interaction of gp96 with AIMP1” value [1] was “decreased”.
